# Assay results reported in patent US20030040438A1, “Method for increasing the yield of beans” (priority 2000, published 2003).
# System: soybean seeds (Variety: Halosoy)
# Assay: Test of Yield Increasing Effect on Soybeans (seed drenching)
# Assay type: in vivo
# Conditions: seeds drenched 12 hours; for Productive grain increasing index: average number of productive grains per plant in non-treated section = 100%; for Yield increasing index per plant: harvest 110 days after sowing, yield (g) in non-treated section = 100%; for One grain weight: weight per selected bean after threshing and drying, non-treated 0.22 g
compound,measurement,setting,value
"CCC1(C(=O)NC(C)c2ccc(Cl)cc2)C(C)C1(Cl)Cl [Carpropamid, N-(R)-[1-(4-chloro-phenyl)-ethyl]-2,2-dichloro-1-ethyl-3t-methyl-1r-cyclopropanecarboxamide]",Productive grain increasing index,1 ppm,127.1%
same,Yield increasing index per plant,1 ppm,131.1%
same,One grain weight,1 ppm,0.23 g
same,Productive grain increasing index,10 ppm,163.5%
same,Yield increasing index per plant,10 ppm,173.1%
same,One grain weight,10 ppm,0.23 g
same,Productive grain increasing index,100 ppm,163.4%
same,Yield increasing index per plant,100 ppm,169.1%
same,One grain weight,100 ppm,0.23 g
same,Productive grain increasing index,1000 ppm,126.8%
same,Yield increasing index per plant,1000 ppm,132.2%
same,One grain weight,1000 ppm,0.23 g
